Values quoted from earlier work, collected in patent US20040191926A1 (priority 2001, published 2004).
Substitutions are numbered along the chain they refer to. Where two headings read alike, the source gives them in different places. Where no end group is shown, it is not given here. [ ]: non-standard residue; d: D form. F2Pmp = N[C@@H](Cc1ccc(C(F)(F)P(=O)(O)O)cc1)C(=O)O

Key:
PTP1B [1] = target: T1, PTP1B (Homo sapiens, UniProt P18031); conditions: as PTP1B substrate (ref. 31); cited from earlier work
T1 sequence (P18031 1-435): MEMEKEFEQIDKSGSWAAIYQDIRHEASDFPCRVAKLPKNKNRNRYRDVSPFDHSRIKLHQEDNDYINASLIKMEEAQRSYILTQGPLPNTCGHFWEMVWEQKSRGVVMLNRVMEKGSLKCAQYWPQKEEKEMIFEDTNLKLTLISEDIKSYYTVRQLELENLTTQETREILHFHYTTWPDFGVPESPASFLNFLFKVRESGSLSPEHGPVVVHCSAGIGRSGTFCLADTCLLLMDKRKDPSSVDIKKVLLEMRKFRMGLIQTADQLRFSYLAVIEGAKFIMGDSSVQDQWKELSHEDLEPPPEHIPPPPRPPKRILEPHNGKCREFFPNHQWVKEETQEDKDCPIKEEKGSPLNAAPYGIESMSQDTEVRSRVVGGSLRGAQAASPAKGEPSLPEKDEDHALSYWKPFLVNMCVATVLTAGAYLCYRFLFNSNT

PTP1B/C215S = target: T2, PTP1B/C215S (Homo sapiens, UniProt P18031, C215S); conditions: isothermal titration calorimetry, pH 7.0 and 25° C.; cited from earlier work
T2 sequence (P18031 1-435 C215S): T1 sequence (P18031 1-435) with C215S

PTP1B [2] = target: T1, PTP1B; conditions: isothermal titration calorimetry, ionic strength of 0.15 M (ref. 33); cited from earlier work
PTP1B [3] = target: T1, PTP1B; conditions: cited from earlier work

O=P(O)(O)Oc1ccc(Cc2ccc(OP(=O)(O)O)cc2)cc1
Km (PTP1B [1]): 16 µM | kcat (PTP1B [1]): 6.9 s⁻¹

Ac-DADEpYL-NH2 [pTyr-containing hexapeptide PTP1B substrate]
Kd (PTP1B/C215S): 0.8 ± 0.1 µM

DADE[F2Pmp]L-NH2
Kd (PTP1B [2]): 0.24 µM | Ki (PTP1B [3]): 0.2 µM | potency relative to the same peptide containing phosphonomethyl phenylalanine (Pmp) (PTP1B [3]): over 1000 times | Ki (PTP1B [3]; enzyme inhibition, ionic strength of 0.15 M (ref. 33)): 0.25 µM | IC50 (PTP1B [3]; low ionic strength: pH 6.3, 50 mM Bis-Tris, 2 mM EDTA, 5 mM DTT buffer (ref. 38)): 0.03 µM | Ki (PTP1B [3]; low ionic strength: pH 7.3 in 50 mM Hepes, 5 mM DTT and 10 mg/mL BSA buffer (ref. 37)): 0.026 µM
